The values that follow are results of earlier work, collected in patent US9738620B2, “Trientine prodrugs, pharmaceutical compositions thereof, and methods of use” (priority 2015, dated 2017).

The conditions of the series: Lu., Molecular Cancer Therapeutics. 2010, 9 (9), 2458-67.

Turning to `NCCNCCNCCN` [Trientine], the oral bioavailability is given as 8-30%.
